In the supplement of paper PMC11451515:

Assays:
Conditions in all cases: 48 h
NOMO1 [1] = test: cell viability relative to DMSO control; higher = less cytotoxic
Method in brief: (§1)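 In 1536-well plates, 5 μl of leukemia cells were seeded per well: 500 cells/well for NOMO1 or SEM and 1000 cells/well for P12-Ichikawa. Each line had first been adapted for at least four passages in each medium. Library compounds in DMSO were pin-dosed at 11 threefold concentrations between 47 μM and 0.79 nM, and CellTiter-Glo One luminescence was read after 48 h at 37°C. Viability is a per-plate percentage relative to DMSO wells, with cell-free wells as background.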

P12-Ichikawa [2] = test: as above
Method in brief: as §1

SEM cells [3] = test: as above
Method in brief: as §1

NOMO1 [4] = test: AUC of viability dose-response curve (% viability x log10 dose units); higher = less sensitive
Method in brief: (§2)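 Leukemia cells adapted to each medium were seeded in 1536-well plates (500 or 1000 cells/well). They were dosed with library compounds in DMSO at 11 threefold doses, 47 μM to 0.79 nM, for 48 h at 37°C. CellTiter-Glo One luminescence was normalised per plate to DMSO and cell-free wells. Area under the curve was integrated by trapezoidal rule over log10 doses on a four-parameter log-logistic fit; curves exceeding full viability were scaled and curves failing quality control removed.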

P12-Ichikawa [5] = test: as above
Method in brief: as §2

SEM cells [6] = test: as above
Method in brief: as §2

[7] = HPLM + 10% dialyzed FBS, 0.000781 µM
[8] = HPLM + 10% dialyzed FBS, 0.00234 µM
[9] = HPLM + 10% dialyzed FBS, 0.00702 µM
[10] = HPLM + 10% dialyzed FBS, 0.0211 µM
[11] = HPLM + 10% dialyzed FBS, 0.0632 µM
[12] = HPLM + 10% dialyzed FBS, 0.19 µM
[13] = HPLM + 10% dialyzed FBS, 0.569 µM
[14] = HPLM + 10% dialyzed FBS, 1.71 µM
[15] = HPLM + 10% dialyzed FBS, 5.12 µM
[16] = HPLM + 10% dialyzed FBS, 15.4 µM
[17] = HPLM + 10% dialyzed FBS, 46.1 µM
[18] = RPMI 5 mM glucose + 10% FBS, 0.000781 µM
[19] = RPMI 5 mM glucose + 10% FBS, 0.00234 µM
[20] = RPMI 5 mM glucose + 10% FBS, 0.00702 µM
[21] = RPMI 5 mM glucose + 10% FBS, 0.0211 µM
[22] = RPMI 5 mM glucose + 10% FBS, 0.0632 µM
[23] = RPMI 5 mM glucose + 10% FBS, 0.19 µM
[24] = RPMI 5 mM glucose + 10% FBS, 0.569 µM
[25] = RPMI 5 mM glucose + 10% FBS, 1.71 µM
[26] = RPMI 5 mM glucose + 10% FBS, 5.12 µM
[27] = RPMI 5 mM glucose + 10% FBS, 15.4 µM
[28] = RPMI 5 mM glucose + 10% FBS, 46.1 µM
[29] = RPMI 5 mM glucose + 10% dialyzed FBS, 0.000781 µM
[30] = RPMI 5 mM glucose + 10% dialyzed FBS, 0.00234 µM
[31] = RPMI 5 mM glucose + 10% dialyzed FBS, 0.00702 µM
[32] = RPMI 5 mM glucose + 10% dialyzed FBS, 0.0211 µM
[33] = RPMI 5 mM glucose + 10% dialyzed FBS, 0.0632 µM
[34] = RPMI 5 mM glucose + 10% dialyzed FBS, 0.19 µM
[35] = RPMI 5 mM glucose + 10% dialyzed FBS, 0.569 µM
[36] = RPMI 5 mM glucose + 10% dialyzed FBS, 1.71 µM
[37] = RPMI 5 mM glucose + 10% dialyzed FBS, 5.12 µM
[38] = RPMI 5 mM glucose + 10% dialyzed FBS, 15.4 µM
[39] = RPMI 5 mM glucose + 10% dialyzed FBS, 46.1 µM
[40] = RPMI 5 mM glucose + 10% dialyzed FBS

O=C1c2ccccc2-[n+]2ccc3c([nH]c4ccccc43)c21
cell viability (NOMO1 [1]; [7]): 106% | cell viability (NOMO1 [1]; [8]): 114% | cell viability (NOMO1 [1]; [9]): 125% | cell viability (NOMO1 [1]; [10]): 93.1% | cell viability (NOMO1 [1]; [11]): 103% | cell viability (NOMO1 [1]; [12]): 120% | cell viability (NOMO1 [1]; [13]): 104% | cell viability (NOMO1 [1]; [14]): 99.6% | cell viability (NOMO1 [1]; [15]): 62% | cell viability (NOMO1 [1]; [16]): 2.96% | cell viability (NOMO1 [1]; [17]): 2.32% | cell viability (NOMO1 [1]; [18]): 98% | cell viability (NOMO1 [1]; [19]): 115% | cell viability (NOMO1 [1]; [20]): 104% | cell viability (NOMO1 [1]; [21]): 110% | cell viability (NOMO1 [1]; [22]): 112% | cell viability (NOMO1 [1]; [23]): 103% | cell viability (NOMO1 [1]; [24]): 112% | cell viability (NOMO1 [1]; [25]): 108% | cell viability (NOMO1 [1]; [26]): 87% | cell viability (NOMO1 [1]; [27]): 3.28% | cell viability (NOMO1 [1]; [28]): 2.18% | cell viability (NOMO1 [1]; [29]): 91.3% | cell viability (NOMO1 [1]; [30]): 116% | cell viability (NOMO1 [1]; [31]): 107% | cell viability (NOMO1 [1]; [32]): 97.1% | cell viability (NOMO1 [1]; [33]): 98.5% | cell viability (NOMO1 [1]; [34]): 126% | cell viability (NOMO1 [1]; [35]): 101% | cell viability (NOMO1 [1]; [36]): 102% | cell viability (NOMO1 [1]; [37]): 66.4% | cell viability (NOMO1 [1]; [38]): 3.34% | cell viability (NOMO1 [1]; [39]): 2% | cell viability (P12-Ichikawa [2]; [7]): 101% | cell viability (P12-Ichikawa [2]; [8]): 108% | cell viability (P12-Ichikawa [2]; [9]): 112% | cell viability (P12-Ichikawa [2]; [10]): 105% | cell viability (P12-Ichikawa [2]; [11]): 105% | cell viability (P12-Ichikawa [2]; [12]): 106% | cell viability (P12-Ichikawa [2]; [13]): 101% | cell viability (P12-Ichikawa [2]; [14]): 105% | cell viability (P12-Ichikawa [2]; [15]): 95.4% | cell viability (P12-Ichikawa [2]; [16]): 2.96% | cell viability (P12-Ichikawa [2]; [17]): 3.56% | cell viability (P12-Ichikawa [2]; [18]): 98.1% | cell viability (P12-Ichikawa [2]; [19]): 106% | cell viability (P12-Ichikawa [2]; [20]): 105% | cell viability (P12-Ichikawa [2]; [21]): 114% | cell viability (P12-Ichikawa [2]; [22]): 104% | cell viability (P12-Ichikawa [2]; [23]): 107% | cell viability (P12-Ichikawa [2]; [24]): 107% | cell viability (P12-Ichikawa [2]; [25]): 112% | cell viability (P12-Ichikawa [2]; [26]): 101% | cell viability (P12-Ichikawa [2]; [27]): 2.99% | cell viability (P12-Ichikawa [2]; [28]): 2.29% | cell viability (P12-Ichikawa [2]; [29]): 102% | cell viability (P12-Ichikawa [2]; [30]): 115% | cell viability (P12-Ichikawa [2]; [31]): 111% | cell viability (P12-Ichikawa [2]; [32]): 108% | cell viability (P12-Ichikawa [2]; [33]): 107% | cell viability (P12-Ichikawa [2]; [34]): 111% | cell viability (P12-Ichikawa [2]; [35]): 100% | cell viability (P12-Ichikawa [2]; [36]): 113% | cell viability (P12-Ichikawa [2]; [37]): 107% | cell viability (P12-Ichikawa [2]; [38]): 3.39% | cell viability (P12-Ichikawa [2]; [39]): 2.85% | cell viability (SEM cells [3]; [7]): 91% | cell viability (SEM cells [3]; [8]): 89.3% | cell viability (SEM cells [3]; [9]): 102% | cell viability (SEM cells [3]; [10]): 77.2% | cell viability (SEM cells [3]; [11]): 70.7% | cell viability (SEM cells [3]; [12]): 73.6% | cell viability (SEM cells [3]; [13]): 68% | cell viability (SEM cells [3]; [14]): 55.8% | cell viability (SEM cells [3]; [15]): 19.6% | cell viability (SEM cells [3]; [16]): 3.74% | cell viability (SEM cells [3]; [17]): 2.58% | cell viability (SEM cells [3]; [18]): 116% | cell viability (SEM cells [3]; [19]): 109% | cell viability (SEM cells [3]; [20]): 102% | cell viability (SEM cells [3]; [21]): 92.1% | cell viability (SEM cells [3]; [22]): 78.2% | cell viability (SEM cells [3]; [23]): 92.7% | cell viability (SEM cells [3]; [24]): 85.7% | cell viability (SEM cells [3]; [25]): 59.6% | cell viability (SEM cells [3]; [26]): 32.3% | cell viability (SEM cells [3]; [27]): 3.62% | cell viability (SEM cells [3]; [28]): 2.81% | cell viability (SEM cells [3]; [29]): 92.7% | cell viability (SEM cells [3]; [30]): 98% | cell viability (SEM cells [3]; [31]): 91.9% | cell viability (SEM cells [3]; [32]): 80.2% | cell viability (SEM cells [3]; [33]): 87.4% | cell viability (SEM cells [3]; [34]): 84.9% | cell viability (SEM cells [3]; [35]): 65.4% | cell viability (SEM cells [3]; [36]): 58.1% | cell viability (SEM cells [3]; [37]): 32.6% | cell viability (SEM cells [3]; [38]): 3.56% | cell viability (SEM cells [3]; [39]): 2.5% | AUC of viability dose-response curve (NOMO1 [4]; HPLM + 10% dialyzed FBS): 385 | AUC of viability dose-response curve (NOMO1 [4]; RPMI 5 mM glucose + 10% FBS): 398 | AUC of viability dose-response curve (NOMO1 [4]; [40]): 390 | AUC of viability dose-response curve (P12-Ichikawa [5]; HPLM + 10% dialyzed FBS): 403 | AUC of viability dose-response curve (P12-Ichikawa [5]; RPMI 5 mM glucose + 10% FBS): 405 | AUC of viability dose-response curve (P12-Ichikawa [5]; [40]): 407 | AUC of viability dose-response curve (SEM cells [6]; HPLM + 10% dialyzed FBS): 291 | AUC of viability dose-response curve (SEM cells [6]; RPMI 5 mM glucose + 10% FBS): 332 | AUC of viability dose-response curve (SEM cells [6]; [40]): 311
